From US8163709B2, “TAK1-D mediated induction of cell death in human cancer cells by specific sequence short double-stranded RNAS” (Board of Regents of the University of Texas System, priority 2008, dated 2012)
Entries after “also recorded” stand apart in the source; their conditions may differ.

Assays:
SAPK/JNK pathway = assay: Activation of the SAPK/JNK pathway in H460 cells (Western blot); type: cell-based, human; settings: for activation of the SAPK/JNK pathway (phosphorylation of MKK4, SAPK/JNK): H460 cells, 20 nM RNA, 2-6 h
TLK1 = TLK1 protein level in NCI-H460 cells (Western blot); type: cell-based, human; settings: first 6 h after addition
From the text: FIGS. 3A-D illustrate the timecourse as well the downstream signaling events of dsRNA mediated Tak1-D activation in more detail. […] This activation is not triggered by siRNA si6 or by the non-targeting scrambled sequence siNT, even at later timepoints. […] The activation of TAK1-D leads to a phosphorylation of the MAPKKs of both stress activated protein kinase signaling pathways, indicated by the occurrence of activation phosphorylation on MKK3/6 and MKK4 (FIG. 3A). Consecutively activation of MKK3/6 leads to phosphorylation and activation of the p38 MAPK, while activation of MKK4 phosphorylates and activates SAPK/JNK. These mitogen activated protein kinase kinases phosphorylate and activate their respective substrates p38 MAP kinase and SAPK/JNK. […] This provided further confirmation, apart from the rapid occurrence of TAK1-D phosphorylation, that gene silencing effects of the siRNAs play no role in the phenomena described.

HCC2279 cells = assay: Crystal Violet staining of HCC2279 cells; type: cell-based, human; settings: 48 h
Method: To test whether the dsRNA mediated activation of the stress-activated protein kinase cascade also leads to cell death in HCC2279 cells, the cells were plated in a 12 well multi-well plated, treated with siRNA si5 or as a control with siRNA si6 and stained with Crystal Violet 48 h later. […] The data presented as well as the widespread expression of Tak1-D in tissues like lung, brain, liver, and prostate (Dempsey et al., 2000) makes targeted activation of TAK1-D by specific dsRNA an interesting treatment opportunity for these types of cancer.

H460 cells [1] = assay: Protein synthesis by [35S] methionine incorporation in H460 cells; type: cell-based, human; settings: for protein synthesis by [35S] methionine incorporation: 4 h
Method: On the next day cells were incubated with the dsRNAs for the given amount of time. Ten minutes prior to labeling the cell culture medium was replaced with cystein/methionine free RPMI. Thereafter, cells were incubated for 15 minutes in cystein/methionine free RPMI containing 40 μC/ml [^35S] methionine (Perkin Elmer, Waltham, Mass., USA).
In order to measure the incorporated radionuclide, cells were washed 5 times with 5% TCA, once with 70% ethanol and the proteins were solubilized in SDS-PAGE sample buffer. After addition of the samples to a liquid scintillation cocktail, [^35S] activity was determined in a LS6500 scintillation counter (Beckmann).
For SDS-PAGE cells were washed 3 times with PBS and proteins were solubilized by heating in non reducing sample buffer. After determination of the protein concentration (D protein assay, Bio-Rad, Hercules, Calif., USA) samples were reduced by the addition of DTT to a final concentration of 100 mM and separated in a 4-12% Bis-Tris gradient gel (NuPAGE, Invitrogen). The gel was dried after Coomassie blue staining and autoradiography was performed using a phosphoimager (Typhoon 9410, Amerham).

TAK1-D = biological target: T1, TAK1-D (Homo sapiens, UniProt O43318); assay: TAK1-D autophosphorylation on T184/T187 in H460 cells (Western blot, phospho-specific antibody); type: cell-based; design: endogenous in cells; host or cells: NCI-H460; settings: for activating autophosphorylation (activation) of TAK1-D on T184 and T187: H460 cells, RNA transfected (20 nM), Western blot
T1 sequence (O43318 1-491 isoform O43318-4): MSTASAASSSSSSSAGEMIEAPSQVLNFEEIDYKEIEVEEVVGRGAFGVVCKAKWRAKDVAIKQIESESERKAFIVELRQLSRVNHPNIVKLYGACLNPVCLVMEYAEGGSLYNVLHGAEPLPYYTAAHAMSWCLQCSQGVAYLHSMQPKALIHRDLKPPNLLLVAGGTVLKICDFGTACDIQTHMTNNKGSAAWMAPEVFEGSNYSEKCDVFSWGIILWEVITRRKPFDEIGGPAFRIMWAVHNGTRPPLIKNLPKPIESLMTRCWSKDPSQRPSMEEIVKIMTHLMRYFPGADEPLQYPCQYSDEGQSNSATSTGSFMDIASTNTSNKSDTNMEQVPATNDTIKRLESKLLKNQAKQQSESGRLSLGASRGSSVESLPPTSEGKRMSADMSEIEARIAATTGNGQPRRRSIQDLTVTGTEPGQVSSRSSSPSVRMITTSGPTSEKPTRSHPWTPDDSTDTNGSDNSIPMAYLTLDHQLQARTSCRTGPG
Method: In an effort to identify the MAPKKK responsible for the activation of the p38 MAP kinase and SAPK/JNK pathway, several of these kinases were screened for siRNA si5 mediated activation.
Immunoblot analysis. Western blotting was performed exactly as described previously (Kodym et al., 2008b). In addition to the primary antibodies previously mentioned (Kodym et al., 2008b) the following antibodies were used: S6 ribosomal protein (Cell Signaling #2217), DPM1 (Santa Cruz #sc-15836, Santa Cruz, Calif., USA), and Histone H3 (Cell Signaling #9715).

H460 cells [2] = assay: Survival assay of H460 cells, Crystal Violet staining

“si6: control 21-mer siRNA against TLK1 mRNA: GGGUGGAAAUGGCUCAAGUtt (SEQ ID NO: 4) / gtCCCACCUUUACCGAGUUCA (SEQ ID NO: 5) (sense GGGUGGAAAUGGCUCAAGUTT; antisense GTCCCACCUUUACCGAGUUCA; chemistry not given here; one strand is listed 3' to 5') [reference compound]” was tested, and the “activation of the SAPK/JNK pathway (phosphorylation of MKK4, SAPK/JNK)” value (“activation of the SAPK/JNK pathway” for short) (SAPK/JNK pathway) was “had no effect; also recorded: does not occur; also recorded: No activation”, the “protein levels of Tlk1” value (TLK1) was “remain unchanged” and the “toxicity, crystal violet” value (HCC2279 cells; HCC2279, concentration range tested) was “no significant toxicity”. The inhibition of translation (H460 cells [1]; H460, SDS-PAGE autoradiography) was “No inhibition of translation was observed”, the “[35S] methionine incorporation” value (H460 cells [1]; H460, scintillation counting) was “remained unchanged” and the “activating autophosphorylation (activation) of TAK1-D on T184 and T187” value (TAK1-D) was “not triggered”. The “cell death, crystal violet” value (H460 cells [2]; H460, 48 hours after transfection, shRNA experiment) was “no cell death or growth inhibition could be observed” and the “toxicity, crystal violet” value (H460 cells [2]; H460-wt, H460-vec, H460-K63W, 48 h) was “no significant toxicity can be observed”.

With “si5: 21-mer siRNA against TLK1 mRNA: GGCUUUUGACCUUUAUGAAtt (SEQ ID NO: 2) / ttCCGAAAACUGGAAAUACUU (SEQ ID NO: 3) (sense GGCUUUUGACCUUUAUGAATT; antisense TTCCGAAAACUGGAAAUACUU; chemistry not given here; one strand is listed 3' to 5')” the “activation of the SAPK/JNK pathway” value (SAPK/JNK pathway) was “activation of the stress-activated protein kinase jun-amino-terminal kinase (SAPK/JNK) pathway”, the “activation of the SAPK/JNK pathway” value (SAPK/JNK pathway; listed as Si5) was “phosphorylation and activation of MKK3/6 as well as MKK4” and the “activating phosphorylation of SAPK/JNK in TAK1-D/K63W transfected cells” value (SAPK/JNK pathway; H460 stably transfected with K63W vs wt and vector, 4 h) was “very significant reduction; also recorded: significantly reduced”. The “protein levels of Tlk1” value (TLK1) was “remain unchanged”, the “effect on cells, Crystal Violet” value (HCC2279 cells; HCC2279, 5 nM) was “small effect on cell growth” and the “effect on cells, Crystal Violet” value (HCC2279 cells; HCC2279, 10 to 20 nM) was “significant cell death”. The “[35S] methionine incorporation, of its initial value” (H460 cells [1]; H460, after 4 hours, scintillation counting) was “about 60%”, the “time until [35S] methionine incorporation significantly reduced” value (H460 cells [1]; H460, after transfection) was at most 1 h and the “[35S] methionine incorporation, of initial value” (H460 cells [1]; H460, within first 4 hours, SDS-PAGE autoradiography) was “about 50%”. For the same substance, the “protein synthesis by [35S] methionine incorporation” value (H460 cells [1]; TAK1-D/K63W transfected H460, 10 nM) was “could not be observed; also recorded: no change in protein synthesis can be detected”, the “protein synthesis by [35S] methionine incorporation” value (H460 cells [1]; wild-type and vector transfected H460, 10 nM) was “significant reduction in mRNA translation; also recorded: drops significantly” and the “activating autophosphorylation (activation) of TAK1-D on T184 and T187” value (TAK1-D) was “a si5 induced signal was detected; also recorded: able to activate Tak1-D; also recorded: leads to phosphorylation of TAK1-D”. For the same substance, the “autophosphorylation signal of Tak1-D six hours after addition” value (TAK1-D; NCI-H460 cells, 6 h) was “significantly stronger autophosphorylation signal”, the “effect on cells, Crystal Violet” value (H460 cells [2]; H460, 5 nM, 48 h) was “slight growth retardation” and the “effect on cells, Crystal Violet” value (H460 cells [2]; H460, 10 nM to 20 nM, 48 h) was “significant cell kill”. The “cell death, crystal violet” value (H460 cells [2]; H460-wt and H460-vec, 5 or 10 nM, 48 h) was “massive cell death” and the “cell death, crystal violet” value (H460 cells [2]; TAK1-D/K63W transfected H460, 5 or 10 nM, 48 h) was “survive the treatment and not”.
